“And” between values parts separate entries of the source, which are not always exact repeats. Equal entries are not always repeated. “Also recorded” adds a separate entry of the source.
Columns and labels:
mouse ES cells [1] = assay: Sox17 endoderm induction in mouse ES cell monolayer cultures; assay type: cell-based; settings: mouse ES cells; for EC50: 144 h, treatment for 6 days, immunofluorescence, titration 50 nM to 5 μM, read-out: EC50 of Sox17 expression; for percentage of cells expressing Sox17 after 12 hrs treatment: analysed at day 6; for day of treatment at which endoderm induction peaks: 14 days time course; for percent of total cells expressing Sox17 at day 6 of treatment: αSox17 immunofluorescence
Experimental: Mouse ES cells were routinely cultured on irradiated CF-1 MEF feeder cells in DMEM (Gibco) media supplemented with 15% Fetal Bovine Serum (HyClone FBS, Invitrogen), 2 mM L-glutamine (L-Glu, Gibco), 1.1 mM 2-mercaptoethanol (Gibco), 1 mM nonessential amino acids (Gibco), 1× penicillin/streptomycin (P/S, Gibco) and 5×10^5 units LIF (Chemicon). Cells were passaged at the ratio of 1:6-1:12 every 2-3 days using 0.25% trypsin. To generate the starting population, mouse ES cells was cultured on MEF feeder cells until they reached 80-90% confluence. Prior to differentiation, ES cells were passaged onto gelatin coated plates for 30 min to remove MEFs. MEF depleted ES cells were seeded at 2500 cells per cm^2 on gelatinized plates. After overnight culture, cells were exposed to 25 ng/ml Wnt3a (R&D Systems)+50 ng/ml recombinant Activin A (R&D Systems) or 500 ng/ml Nodal (R&D Systems) in DMEM (Gibco) supplemented with 1×L-Glu and 0.2% FBS (Gibco) for 1 day, then Activin A or Nodal in the same media and cultured for 4-6 days to induce endoderm differentiation. For the chemical inductions, compounds IDE1 and IDE2 (provided by Stuart L. Schreiber) were added at 5 μM concentration in the differentiation media. For pancreatic progenitors induction, the cells were transferred to 50 ng/ml FGF10 (R&D Systems), 0.75 μM KAAD-cyclopamine (Calbiochem) and 2 μM RA (Sigma) or Indolactam V 330 nM (Axxora) in DMEM supplemented with 1×L-Glu, 1×PS, 1×B27 (Invitrogen) for 4 days. SHB431542 was purchased from Sigma. All stock compounds were made with either DMSO or PBS
(§1) Cells were fixed in 4% paraformaldehyde (Sigma) in PBS for 20 min at 4° C. followed by a wash with PBS. Cells were blocked with 10% donkey serum (Jackson Immunoresearch) in PBS/0.1% Triton X and incubated with primary antibodies overnight at 4° C. Secondary antibodies were incubated for 1 h at room temperature. The following antibodies and dilutions were used: goat anti-SOX17, (1:500 R&D systems); rabbit anti-PDX1 (1:200, Chemicon), rabbit anti-FoxA2 (1:500; Upstate), rabbit anti-Dab2 (1:200, Santa Cruz), rabbit anti-SPARC (1:200, Santa Cruz,), mouse anti-AFP (1:100, Sigma), anti-Gata6 (1:50, Santa Cruz Biotech), goat anti-HNF6 (1:200, Santa Cruz Biotech), rabbit anti-RFP/DsRed (1:300, MBL), rabbit anti-GFP (1:200, Molecular Probes). Secondary antibodies were: rhodamine Red-X-conjugated donkey anti-goat antibody, 1:200 (JIRL), Alexa-488-conjugated goat anti-mouse and Alexa-594-conjugated goat anti-rabbit antibodies (1:300, Molecular Probes). Nuclei were visualized by Hoechst 33342 (1:1000, Molecular Probes). Images were taken using an Olympus IX70 Microscope. For quantification images were analyzed for the frequency of SOX17+, FoxA2+ or Pdx1+ cells using Metamorph image analysis software (Molecular Devices) and at least 6 images per well were collected. Data were confirmed in four independent experiments.
Endoderm formation was monitored by Sox17 expression by either flow cytometry detection of Sox17/DsRed or immunofluorescence using anti-Sox17 antibodies. Cells labeled by antibody staining were quantified using Metamorph software ad percentage of total cell number (based on Hoechst 33342 nuclei staining). All conditions were tested in either tri- or quadruplicates.

[2] = test system: human ES cells (HUES 4 and 8); assay: Sox17 endoderm induction in human ES cells; assay type: cell-based; settings: for dose dependence of Sox17 expression: HUES 4 and 8; for percent of cells expressing Sox17: HUES cells, 4 days, IDE1 100 nM, IDE2 200 nM
Experimental: Human embryonic stem cell lines were cultured essentially as described {Cowan, 2004 #6}. Briefly, HUES4, HUES8 and HUES9 cells are routinely cultured on irradiated CF-1 MEF feeder cells in KnockOut DMEM (Gibco) supplemented with 10% KnockOut Serum Replacement (Gibco), 10% human plasma (Invitrogen), 2 mM L-glutamine (L-Glu, Gibco), 1.1 mM 2-mercaptoethanol (Gibco), 1 mM nonessential amino acids (Gibco), 1× penicillin/streptomycin (PS, Gibco) and 10 ng/ml bFGF (Invitrogen). Cells are split at the ratio of 1:10-1:12 every 4-5 days by using 1 mg/ml collagenase type IV. To induce endoderm formation, HUES cells was cultured on MEF feeder cells till 80-90% confluent, then treated with 100 ng/ml Activin A in advanced RPMI (Gibco) supplemented with 1×L-Glu and 0.2% FBS (Gibco), or with combination of 25 ng/ml Wnt3a (R&D systems)+100 ng/ml Activin A (R&D systems) or were exposed to compounds in the same media. At days 4 and 6 of culture cells were analysed for endodermal marker expression, Sox17.
as §1

mouse ES cells [3] = assay: Extra-embryonic endoderm markers and morphology of induced Sox17+ cells (immunostaining); assay type: cell-based; settings: for morphology of induced Sox17+ cells: immunostaining with α-Sox17 antibody; for expression of extra-embryonic endoderm (EE) markers GATA4, SPARC, AFP, Dab2 in induced Sox17+ cells: mouse ES cells, immunostaining
Experimental: as §1
During evaluation of primary hit compounds, the inventors observed that small molecules induced Sox17+ cells with two distinct morphologies. One class, including IDE1 and IDE2, induced clustered populations of Sox17+ cells, whereas other compounds led to the formation of a dispersed population of Sox17+ cells. […] Sox17 is expressed in definitive endoderm, but also in extra-embryonic endoderm, and in other germ layer derivatives at later stages of development including vascular endothelium (Kanai-Azuma et al., 2002; Matsui et al., 2006). Since the positive identification of definitive endoderm is hindered by the lack of unique markers that are expressed exclusively there, and not present in other types of endoderm, the inventors performed a negative selection and tested for markers of extra-embryonic endoderm. It was found, that the vast majority (>95%) of the dispersed Sox17+ cells (class II) also expressed extra-embryonic endoderm markers including Gata4 (Morrisey et al., 1996), SPARC (Mason et al., 1986), AFP (Dziadek, 1979) and Dab2 (Yang et al., 2002) (Suppl. FIG. 2B).

Smad2 = assay: Western blot analysis of Smad2 phosphorylation in ES cell lysates; assay type: cell-based, mouse; settings: ES cell lysates, after 24 hrs or longer
Experimental: Cells were lysed in 1×RIPA lysis buffer in the presence of protease inhibitor mixture (Roche)/1% phosphatase inhibitor mixture (Roche). Proteins were separated by 10% Tris-Glycine SDS/PAGE (Bio-rad) under denaturing conditions and transferred to a nitrocellulose membrane. After blocking with 5% skim milk in PBS/0.1% Triton X, the membrane was incubated with primary antibodies against phospho-Smad2 (1:1000, Cell Signaling) overnight at 4° C. The membrane was then washed, incubated with anti-mouse/rabbit peroxidase-conjugated affinity-purified secondary antibody (1:1000, Cell Signaling) at room temperature for 1 h, and developed by SuperSignal chemiluminescence (Pierce).

EC50 (mouse ES cells [1])	Compound	percentage of cells expressing Sox17 after 12 hrs treatment (mouse ES cells [1])	day of treatment at which endoderm induction peaks (mouse ES cells [1])	percentage of cells expressing Sox17 at day 2 of treatment (mouse ES cells [1])	percent of total cells expressing Sox17 at day 6 of treatment (mouse ES cells [1])	dose dependence of Sox17 expression [2]	percent of cells expressing Sox17 [2]	morphology of induced Sox17+ cells (mouse ES cells [3])	expression of extra-embryonic endoderm (EE) markers GATA4, SPARC, AFP, Dab2 in induced Sox17+ cells (mouse ES cells [3])	phosphorylation of Smad2 / activation of the TGF-β pathway (Smad2)	percentage of cells expressing Sox17 at day 4 of treatment (mouse ES cells [1]; day 4)
125 nM	O=C(O)CCCCCC(=O)N/N=C/c1ccccc1C(=O)O [IDE1]	~40%	6 days	34%	80% and 81±14%	dose-depended manner	62±8.1%	compact, epithelial sheet	marginal expression of EE markers; also recorded: no or a negligible number of cells positive for extra-embryonic markers	comparable to that induced by Activin A treatment; also recorded: activation of the TGF-β pathway	
223 nM	O=C(O)CCCCCC(=O)NN=C1CCCC1 [IDE2]	~40%	6 days	32%	72% and 76±14%	dose-depended manner	57±6.7%	compact, epithelial sheet	only rarely detected; also recorded: no or a negligible number of cells positive for extra-embryonic markers	comparable to that induced by Activin A treatment; also recorded: activation of the TGF-β pathway	42±3.83%
